Measurements: PubChem BioAssay AID1845194 (Molecular Pharmacology Branch, DTP, NCI, 2023)

System: 287954-098-R-J1 tumor spheroid viability
Experiment: Anticancer human tumor 287954-098-R-J1 patient-derived Ewing sarcoma cell line growth inhibition
Conditions: spheroids with HUVEC and MSC; for IC50: curve of first compound; for viability, T/C: stronger effect = lower value
Outline: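 Complex tumor spheroids combined malignant cells with endothelial cells and mesenchymal stem cells. DNA-damaging drugs and DNA repair inhibitors were tested alone and in combination, at half-log dilutions down from clinical Cmax (top 10 microM if Cmax unknown), 0.25% DMSO final.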

[1] = second compound 30 pM, first compound 0.0316 µM
[2] = second compound 30 pM, first compound 0.1 µM
[3] = second compound 30 pM, first compound 0.316 µM
[4] = second compound 30 pM, first compound 1 µM
[5] = second compound 30 pM, first compound 3.16 µM
[6] = second compound 30 pM, first compound 10 µM
[7] = second compound 94.9 pM, first compound 0.0316 µM
[8] = second compound 94.9 pM, first compound 0.1 µM
[9] = second compound 94.9 pM, first compound 0.316 µM
[10] = second compound 94.9 pM, first compound 1 µM
[11] = second compound 94.9 pM, first compound 3.16 µM
[12] = second compound 94.9 pM, first compound 10 µM
[13] = second compound 0.0003 µM, first compound 0.0316 µM
[14] = second compound 0.0003 µM, first compound 0.1 µM
[15] = second compound 0.0003 µM, first compound 0.316 µM
[16] = second compound 0.0003 µM, first compound 1 µM
[17] = second compound 0.0003 µM, first compound 3.16 µM
[18] = second compound 0.0003 µM, first compound 10 µM
[19] = second compound 0.000949 µM, first compound 0.0316 µM
[20] = second compound 0.000949 µM, first compound 0.1 µM
[21] = second compound 0.000949 µM, first compound 0.316 µM
[22] = second compound 0.000949 µM, first compound 1 µM
[23] = second compound 0.000949 µM, first compound 3.16 µM
[24] = second compound 0.000949 µM, first compound 10 µM
[25] = second compound 0.003 µM, first compound 0.0316 µM
[26] = second compound 0.003 µM, first compound 0.1 µM
[27] = second compound 0.003 µM, first compound 0.316 µM
[28] = second compound 0.003 µM, first compound 1 µM
[29] = second compound 0.003 µM, first compound 3.16 µM
[30] = second compound 0.003 µM, first compound 10 µM
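Also: spheroids exposed to compound for 7 days before viability readout.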
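For viability, T/C in this document: luminescent signal taken as surrogate of viable cell content; 100% = DMSO vehicle control viability and lower means growth inhibition.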

COc1cc(C)[nH]c(=O)c1CN1CCc2c(Cl)cc(C(OC)C3COC3)c(Cl)c2C1=O (stereo not given) + COc1cc2c(cc1O)CCNC21CSC2c3c(OC(C)=O)c(C)c4c(c3C(COC1=O)N1C(O)C3Cc5cc(C)c(OC)c(O)c5C(C21)N3C)OCO4
IC50 (second compound 30 pM): > 10000 nM | IC50 (second compound 94.9 pM): > 10000 nM | IC50 (second compound 0.0003 µM): > 10000 nM | IC50 (second compound 0.000949 µM): < 31.6 nM | IC50 (second compound 0.003 µM): < 31.6 nM | viability, T/C [1]: 96.5% | viability, T/C [2]: 94.2% | viability, T/C [3]: 87.3% | viability, T/C [4]: 92.8% | viability, T/C [5]: 104% | viability, T/C [6]: 89.9% | viability, T/C [7]: 108% | viability, T/C [8]: 101% | viability, T/C [9]: 94.5% | viability, T/C [10]: 94.1% | viability, T/C [11]: 91.3% | viability, T/C [12]: 94.1% | viability, T/C [13]: 104% | viability, T/C [14]: 102% | viability, T/C [15]: 92.1% | viability, T/C [16]: 95.5% | viability, T/C [17]: 90.9% | viability, T/C [18]: 87.9% | viability, T/C [19]: 0.52% | viability, T/C [20]: 0.35% | viability, T/C [21]: 0.34% | viability, T/C [22]: 0.36% | viability, T/C [23]: 0.25% | viability, T/C [24]: 0.33% | viability, T/C [25]: 0.25% | viability, T/C [26]: 0.27% | viability, T/C [27]: 0.22% | viability, T/C [28]: 0.16% | viability, T/C [29]: 0.16% | viability, T/C [30]: 0.25%

CC1COCCN1c1cc(-c2ccnn2C)c2ccnc(-c3ccn[nH]3)c2n1 (stereo not given) + Cn1nnc2c(C(N)=O)ncn2c1=O
IC50 (second compound 1 µM): 171 nM | IC50 (second compound 3.16 µM): 187 nM | IC50 (second compound 10 µM): 96.3 nM | IC50 (second compound 31.6 µM): 98.6 nM | IC50 (second compound 100 µM): < 31.6 nM | viability, T/C (second compound 1 µM, first compound 0.0316 µM): 112% | viability, T/C (second compound 1 µM, first compound 0.1 µM): 75.2% | viability, T/C (second compound 1 µM, first compound 0.316 µM): 21% | viability, T/C (second compound 1 µM, first compound 1 µM): 5.68% | viability, T/C (second compound 1 µM, first compound 3.16 µM): 1.55% | viability, T/C (second compound 1 µM, first compound 10 µM): 2.68% | viability, T/C (second compound 3.16 µM, first compound 0.0316 µM): 120% | viability, T/C (second compound 3.16 µM, first compound 0.1 µM): 91.1% | viability, T/C (second compound 3.16 µM, first compound 0.316 µM): 15.7% | viability, T/C (second compound 3.16 µM, first compound 1 µM): 4.89% | viability, T/C (second compound 3.16 µM, first compound 3.16 µM): 1.74% | viability, T/C (second compound 3.16 µM, first compound 10 µM): 2.56% | viability, T/C (second compound 10 µM, first compound 0.0316 µM): 114% | viability, T/C (second compound 10 µM, first compound 0.1 µM): 47.9% | viability, T/C (second compound 10 µM, first compound 0.316 µM): 9.18% | viability, T/C (second compound 10 µM, first compound 1 µM): 5.1% | viability, T/C (second compound 10 µM, first compound 3.16 µM): 1.63% | viability, T/C (second compound 10 µM, first compound 10 µM): 2.11% | viability, T/C (second compound 31.6 µM, first compound 0.0316 µM): 110% | viability, T/C (second compound 31.6 µM, first compound 0.1 µM): 49.3% | viability, T/C (second compound 31.6 µM, first compound 0.316 µM): 8.98% | viability, T/C (second compound 31.6 µM, first compound 1 µM): 3.51% | viability, T/C (second compound 31.6 µM, first compound 3.16 µM): 1.69% | viability, T/C (second compound 31.6 µM, first compound 10 µM): 2.41% | viability, T/C (second compound 100 µM, first compound 0.0316 µM): 12% | viability, T/C (second compound 100 µM, first compound 0.1 µM): 4.47% | viability, T/C (second compound 100 µM, first compound 0.316 µM): 2.32% | viability, T/C (second compound 100 µM, first compound 1 µM): 1.6% | viability, T/C (second compound 100 µM, first compound 3.16 µM): 1.28% | viability, T/C (second compound 100 µM, first compound 10 µM): 2.24%

[2H]c1nc(C)nc([2H])c1-c1cc(NC[C@@H](C)c2cccc3c(C(=O)NC)ccnc23)ncn1 + COc1cc2c(cc1O)CCNC21CSC2c3c(OC(C)=O)c(C)c4c(c3C(COC1=O)N1C(O)C3Cc5cc(C)c(OC)c(O)c5C(C21)N3C)OCO4
IC50 (second compound 30 pM): > 10000 nM | IC50 (second compound 94.9 pM): > 10000 nM | IC50 (second compound 0.0003 µM): > 10000 nM | IC50 (second compound 0.000949 µM): < 31.6 nM | IC50 (second compound 0.003 µM): < 31.6 nM | viability, T/C [1]: 109% | viability, T/C [2]: 104% | viability, T/C [3]: 104% | viability, T/C [4]: 108% | viability, T/C [5]: 109% | viability, T/C [6]: 98.6% | viability, T/C [7]: 106% | viability, T/C [8]: 114% | viability, T/C [9]: 107% | viability, T/C [10]: 110% | viability, T/C [11]: 101% | viability, T/C [12]: 96.7% | viability, T/C [13]: 105% | viability, T/C [14]: 108% | viability, T/C [15]: 112% | viability, T/C [16]: 107% | viability, T/C [17]: 95.4% | viability, T/C [18]: 89.2% | viability, T/C [19]: 0.38% | viability, T/C [20]: 0.51% | viability, T/C [21]: 0.33% | viability, T/C [22]: 0.67% | viability, T/C [23]: 0.26% | viability, T/C [24]: 0.31% | viability, T/C [25]: 0.21% | viability, T/C [26]: 0.24% | viability, T/C [27]: 0.17% | viability, T/C [28]: 0.15% | viability, T/C [29]: 0.14% | viability, T/C [30]: 0.25%
